# Results reported in patent publication US20170065564A1, “BIS-CYCLIC GUANIDINE COMPOUND COMPOSITIONS, METHODS OF USE AND TREATMENT THEREOF” (University of South Florida, priority 2014, published 2017).
# Like-named read-outs stand apart in the source and are kept apart here.
# Tests used:
# Enterococcus faecium [1] = experiment: MIC micro broth dilution assay; type: cell-based; conditions: for MIC: Enterococcus faecium
# In short: (§1)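 Multidrug-resistant clinical ESKAPE isolates were grown overnight (Gram-positives in TSB, Gram-negatives in LB), diluted 1:1,000 and exposed to decreasing compound concentrations in DMF (≤2.0% DMF).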
# Enterobacter cloacae [2] = experiment: MIC micro broth dilution assay; type: cell-based; conditions: for MIC: Enterobacter cloacae
# In short: as §1
# A. baumannii = experiment: Resistance serial passage assay; type: cell-based, Acinetobacter baumannii; conditions: 8 passages, concentration doubled each day
# Method: (§2) ESKAPE pathogens were grown overnight in liquid media at 37° C. These cultures were then diluted 1:100 in fresh media, and seeded into a 96-well plate. Lead bis-cyclic guanidines or control agents were added to respective wells at half MIC concentrations. Plates were then incubated for 24 hours at 37° C., with bacteria removed from these cultures on the following day, to inoculate fresh media (1:100 dilution) containing compounds at a 2-fold higher concentrations. These were then grown overnight, and the procedure repeated for a total of eight days. […] Each experiment was performed in triplicate, yielding identical results.
# S. aureus = experiment: Resistance serial passage assay; type: cell-based, Staphylococcus aureus; conditions: 8 passages, concentration doubled each day
# Method: as §2
# K. pneumoniae = experiment: Resistance serial passage assay; type: cell-based, Klebsiella pneumoniae; conditions: 8 passages, concentration doubled each day
# Method: as §2
# Acinetobacter baumannii = experiment: Minimal bactericidal concentration (MBC) assay; type: cell-based; conditions: purified compound, read-out: MBC90
# Method: (§3) Briefly, compound was washed by centrifugation and serial dilution, before plating on Tryptic Soy Agar (TSA). Plates were incubated for 24 hours at 37° C. and cell viability assessed by determining CFU/ml at each concentration, for every compound. Percent recovery was then determined compared to CFU/ml from no drug controls. All concentrations and controls were tested using three biological replicates, alongside two technical replicates for each data point.
# Klebsiella pneumoniae = experiment: Minimal bactericidal concentration (MBC) assay; type: cell-based; conditions: purified compound, read-out: MBC90
# Method: as §3
# Enterococcus faecium [3] = experiment: Minimal bactericidal concentration (MBC) assay; type: cell-based; conditions: purified compound, read-out: MBC90
# Method: as §3
# Staphylococcus aureus [4] = experiment: Minimal bactericidal concentration (MBC) assay; type: cell-based; conditions: purified compound, read-out: MBC90
# Method: as §3
# Pseudomonas aeruginosa = experiment: Minimal bactericidal concentration (MBC) assay; type: cell-based; conditions: Pseudomonas aeruginosa; purified compound; read-out: MBC90
# Method: as §3
# Enterobacter cloacae [5] = experiment: Minimal bactericidal concentration (MBC) assay; type: cell-based; conditions: Enterobacter cloacae; purified compound; read-out: MBC90
# Method: as §3
# Staphylococcus aureus [6] = experiment: MIC micro broth dilution assay; type: cell-based; conditions: for MIC: Staphylococcus aureus
# In short: as §1
# [7] = tested on: Enterococcus faecium biofilm; experiment: Minimum biofilm eradication concentration (MBEC) assay; type: cell-based; conditions: 24 h biofilm, purified compound
# Method: (§4) The minimum biofilm eradication concentration (MBEC) was determined in 96-well microtiter plates as follows. Broth cultures of ESKAPE strains were grown using the conditions described above. Biofilms for each of the ESKAPE pathogens were generated from these as we have previously described for S. aureus, however human serum was not used for non-staphylococcal organisms.^44 46 For all organisms, biofilms were developed by standardizing an overnight culture into fresh media to an OD600 of 0.5 and adding 150 μl into each well of a 96-well microtiter plate. […] These cultures were incubated at 37° C. overnight alongside no drug controls. After 24 hours, the media was removed from wells and the biofilm resuspended in phosphate buffered saline (PBS). Cultures were mixed by vigorous pipetting, before being serially diluted in PBS, and plated in duplicate on relevant agar. Plates were incubated at 37° C. for 24 hours, and CFUs determined by enumeration. Each analysis was performed using three technical replicates, and antibiofilm activity was determined by comparing treated to untreated samples.
# [8] = tested on: Staphylococcus aureus biofilm; experiment: as above; type: cell-based; conditions: 24 h biofilm, purified compound
# Method: as §4
# [9] = tested on: Klebsiella pneumoniae biofilm; experiment: as above; type: cell-based; conditions: 24 h biofilm, purified compound
# Method: as §4
# [10] = tested on: Acinetobacter baumannii biofilm; experiment: as above; type: cell-based; conditions: 24 h biofilm, purified compound
# Method: as §4
# [11] = tested on: Enterobacter cloacae biofilm; experiment: as above; type: cell-based; conditions: 24 h biofilm, purified compound
# Method: as §4
# [12] = tested on: Pseudomonas aeruginosa biofilm; experiment: as above; type: cell-based; conditions: 24 h biofilm, purified compound
# Method: as §4
structure (smiles),measurement,setting,value
CCCCCCCN1C(=N)N(CCCC[C@H]2CNC(=N)N2CCc2cccc(C(F)(F)F)c2)C[C@@H]1CC1CCCCC1 [Compound 7],"stacked score activity, 100/MIC, E",Enterococcus faecium [1]; E. faecium,33
same,MIC,Enterococcus faecium [1]; E. faecium isolate 1406,2 µM
same,MIC,Enterococcus faecium [1]; E. faecium isolate 1407,2 µM
same,MIC,Enterococcus faecium [1]; E. faecium isolate 1432,2 µM
same,MIC,Enterococcus faecium [1]; E. faecium isolate 1438,2 µM
same,MIC,Enterococcus faecium [1]; E. faecium isolate 1439,2 µM
same,MIC,Enterococcus faecium [1]; E. faecium isolate 1443,2 µM
same,MIC,Enterococcus faecium [1]; E. faecium isolate 1444,2 µM
same,MIC,Enterococcus faecium [1]; E. faecium isolate 1449,2 µM
same,MIC,Enterococcus faecium [1]; E. faecium isolate 1450,2 µM
same,MIC,Enterococcus faecium [1]; E. faecium isolate 1451,2 µM
same,MIC,"Enterococcus faecium [1]; purified compound, Table 1",1.52 µM
same,"stacked score activity, 100/MIC, E",Enterobacter cloacae [2]; E. cloacae,20
same,MIC,Enterobacter cloacae [2]; E. cloacae isolate 1404,2 µM
same,MIC,Enterobacter cloacae [2]; E. cloacae isolate 1405,2 µM
same,MIC,Enterobacter cloacae [2]; E. cloacae isolate 1430,2 µM
same,MIC,Enterobacter cloacae [2]; E. cloacae isolate 1431,2 µM
same,MIC,Enterobacter cloacae [2]; E. cloacae isolate 1445,2 µM
same,MIC,Enterobacter cloacae [2]; E. cloacae isolate 1446,5 µM
same,MIC,Enterobacter cloacae [2]; E. cloacae isolate 1447,2 µM
same,MIC,Enterobacter cloacae [2]; E. cloacae isolate 1448,2 µM
same,MIC,Enterobacter cloacae [2]; E. cloacae isolate 1454,2 µM
same,MIC,Enterobacter cloacae [2]; E. cloacae isolate 1455,2 µM
same,MIC,"Enterobacter cloacae [2]; purified compound, Table 1",1.52 µM
same,concentration inhibiting 90% of isolates,Enterobacter cloacae [2]; panel of E. cloacae clinical isolates,2 µM
same,increase in MIC after serial passage,A. baumannii,8 fold
same,increase in MIC after serial passage,S. aureus,four-fold
same,increase in MIC after serial passage,K. pneumoniae,8 fold
same,MBC,Acinetobacter baumannii; Acinetobacter baumannii,2.16 to 3.28 µM
same,MBC,Acinetobacter baumannii,3.23 µM
same,MBC,Klebsiella pneumoniae; Klebsiella pneumoniae,2.16 to 3.28 µM
same,MBC,Klebsiella pneumoniae,2.16 µM
same,MBC,Enterococcus faecium [3]; Enterococcus faecium,2.16 to 3.28 µM
same,MBC,Enterococcus faecium [3],3.27 µM
same,MBC,Staphylococcus aureus [4]; Staphylococcus aureus,2.16 to 3.28 µM
same,MBC,Staphylococcus aureus [4],3.28 µM
same,MBC,Pseudomonas aeruginosa,13.7 µM
same,MBC,Enterobacter cloacae [5],6.36 µM
same,"stacked score activity, 100/MIC, S",Staphylococcus aureus [6]; S. aureus,33
same,MIC,Staphylococcus aureus [6]; S. aureus isolate 542,2 µM
same,MIC,Staphylococcus aureus [6]; S. aureus isolate 626,2 µM
same,MIC,Staphylococcus aureus [6]; S. aureus isolate 635,2 µM
same,MIC,Staphylococcus aureus [6]; S. aureus isolate 648,2 µM
same,MIC,Staphylococcus aureus [6]; S. aureus isolate 690,2 µM
same,MIC,Staphylococcus aureus [6]; S. aureus isolate 693,2 µM
same,MIC,Staphylococcus aureus [6]; S. aureus isolate 715,2 µM
same,MIC,Staphylococcus aureus [6]; S. aureus isolate 728,2 µM
same,MIC,Staphylococcus aureus [6]; S. aureus isolate 834,2 µM
same,MIC,Staphylococcus aureus [6]; S. aureus isolate 1043,2 µM
same,MIC,Staphylococcus aureus [6]; S. aureus isolate 1049,2 µM
same,MIC,"Staphylococcus aureus [6]; purified compound, Table 1",1.52 µM
same,MBEC50,[7],26.30 µM
same,MBEC50,[8],4.35 µM
same,MBEC50,[9],4.81 µM
same,MBEC50,[10],13.10 µM
same,MBEC50,[11],14.54 µM
same,MBEC50,[12],45.56 µM
